Reference: patent US20060246124A1, “Methods of treating cancer with lipid-based platinum compound formulations administered intraperitoneally” (priority 2004, published 2006)

What was measured:
[1] = Pharmacokinetics and organ distribution (Part II), platinum by ICP-MS; format: in vivo, mice; settings: ip
Procedure: Sixty ICR mice (female, 7 weeks old) were divided into 4 groups. […] At each designed time point, three to four mice were anaesthetized with 70 mg/kg of Nembutal ip (e.g., 3, 20, and 40 min, and 2, 8, 24, 48, and 72 h). […] Organs including duodenum, kidney, liver, lung, and spleen were resected from the mice. The blood and organ samples were homogenized in distilled water (4-fold of the sample weight) and digested with nitric acid. The platinum concentration in each sample was measured by Inductively Coupled Plasma-Mass Spectrometer (ICP-MS). The pharmacokinetics profiles (FIGS. 3-7, all Y-axes are concentration of μg platinum in one gram of tissue or fluid per mg of injected dose) and parameters (Tables 3 and 4) of each formulation were simulated and calculated.

[2] = test system: L1210 tumor cells; assay: In vivo antitumor activity in Murine L1210 tumor model (ascitic L1210 leukemia), ip administration; settings: L1210, B6D2F1 mice
Procedure: The test articles and materials are presented below in Table 5.
Day 0, inoculate 6 groups of 5 male mice and 1 group of 9 male control animals with one million viable L1210 cells per mouse by ip injection. • 2. […] Each dose level represents one group of five mice. […] Control group contains 9 untreated mice.
3. Mice were monitored daily for deaths and or signs of clinical illness. The date of euthanasia was recorded for the purpose of experimental end-points. A total of 39 mice divided into 7 groups were studied. At the end point survival was assessed and expressed as % T/C (percent median survival of treated group: median survival of control group.)

[3] = test system: L1210 cells; assay: Survival of mice with implanted L1210 tumor cells: cyclic temperature vs non cyclic temperature cisplatin liposomes; format: in vivo; settings: single bolus ip 6 mg/kg on day 5, L1210, DBA/2 mice
Procedure: DPPC (3.0 g) and cholesterol (1.2 g) were co-dissolved in 20 mL of ethanol. • 2.
Female DBA/2 mice (Charles Rivers) were used. Thirty (30) mice were injected with 2×10^6 L1210 cells ip on Day 0. On day 1, the mice were weighed and randomized into 3 groups of 10 mice. […] Survival was monitored. Mice were weighed daily after day 10. Mice that lost 20% or greater of their starting weight were euthanized by CO2 inhalation. The date of their death was recorded on data sheets. Median survival was calculated by Prism GraphPad.

[4] = test system: mice; assay: Maximum tolerated dose (MTD), single bolus ip injection; format: in vivo
[5] = test system: stage III ovarian cancer; settings: ip, patients with stage III ovarian cancer and residual tumor masses of 2 cm or less; cited from earlier work
[6] = ip dose 3 mg/kg (1 mg/kg on days 3, 7, 11)
[7] = ip dose 4.5 mg/kg ([…] on days 3, 7, 11)

N.N.[Cl][Pt][Cl] [Cisplatin, cis-diamine-dichloroplatinum (II)]
Circulation AUC ([1]; blood, normalised to injected dose): 7.08 µg·h/g/µg
Organ AUC, Duodenum ([1]; duodenum): 8.32 µg·h/g/µg
Organ AUC, Heart ([1]; heart): 2.67 µg·h/g/µg
Organ AUC, Kidney ([1]; kidney): 8.61 µg·h/g/µg
Organ Cmax, Kidney ([1]; kidney): 0.46 µg/g/µg
Organ AUC, Liver ([1]; liver): 28.99 µg·h/g/µg
Organ Cmax, Liver ([1]; liver): 0.71 µg/g/µg
Organ AUC, Lung ([1]; lung): 29.00 µg·h/g/µg
Organ Cmax, Lung ([1]; lung): 1.61 µg/g/µg
Organ AUC, Spleen ([1]; spleen): 10.45 µg·h/g/µg
% T/C [2, 6]: 196%
Median survival [2, 6]: 26.5 days
% T/C [2, 7]: 218%
Median survival [2, 7]: 29.5 days
Median survival [3]: 19.5 days
MTD [4]: 9 mg/kg
survival compared with iv cisplatin [5]: significantly improves survival
